For 1 molecule, Concentration results are on record in ChEMBL document CHEMBL1138732, “Evans Blue is an inhibitor of nuclear factor-kappa B (NF-kappaB)-DNA binding” (Bioorg Med Chem Lett, 2004).

This assay concerns the target T1, Nuclear factor NF-kappa-B p105 subunit (Homo sapiens) (UniProt P19838).
T1 sequence (whole entry): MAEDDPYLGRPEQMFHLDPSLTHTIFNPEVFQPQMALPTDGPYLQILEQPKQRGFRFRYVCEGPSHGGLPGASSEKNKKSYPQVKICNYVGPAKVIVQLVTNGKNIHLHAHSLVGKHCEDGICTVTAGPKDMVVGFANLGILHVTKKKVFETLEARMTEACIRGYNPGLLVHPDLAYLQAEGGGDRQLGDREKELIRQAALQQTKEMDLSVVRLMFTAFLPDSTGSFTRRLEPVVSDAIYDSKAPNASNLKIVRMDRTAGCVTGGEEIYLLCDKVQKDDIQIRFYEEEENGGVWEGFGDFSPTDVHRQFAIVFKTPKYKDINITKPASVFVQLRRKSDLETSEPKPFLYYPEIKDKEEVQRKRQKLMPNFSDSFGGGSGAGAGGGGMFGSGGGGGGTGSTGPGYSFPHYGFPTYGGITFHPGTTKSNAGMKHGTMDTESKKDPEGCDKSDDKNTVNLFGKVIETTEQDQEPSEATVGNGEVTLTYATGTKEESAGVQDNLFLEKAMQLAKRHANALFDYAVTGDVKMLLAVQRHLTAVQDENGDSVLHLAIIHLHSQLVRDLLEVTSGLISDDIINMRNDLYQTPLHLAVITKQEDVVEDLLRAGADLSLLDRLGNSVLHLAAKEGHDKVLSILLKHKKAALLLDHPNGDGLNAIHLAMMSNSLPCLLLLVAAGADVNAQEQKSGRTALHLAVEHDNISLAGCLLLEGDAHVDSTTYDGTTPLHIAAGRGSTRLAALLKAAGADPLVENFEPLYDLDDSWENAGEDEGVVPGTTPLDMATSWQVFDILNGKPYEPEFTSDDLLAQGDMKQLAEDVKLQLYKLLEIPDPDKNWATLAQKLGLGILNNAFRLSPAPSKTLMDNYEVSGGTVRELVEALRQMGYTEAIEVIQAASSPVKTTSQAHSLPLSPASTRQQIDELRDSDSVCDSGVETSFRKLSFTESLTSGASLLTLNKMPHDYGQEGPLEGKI
Put plainly: inhibitory effect on the DNA binding of Nuclear factor kappa B; Active.

`Cc1cc(-c2ccc(/N=N/c3ccc4c(S(=O)(=O)O)cc(S(=O)(=O)O)c(N)c4c3O)c(C)c2)ccc1/N=N/c1ccc2c(S(=O)(=O)O)cc(S(=O)(=O)O)c(N)c2c1O`: the Concentration is 100 µM.
